Values of other authors in patent US6751290B2, “Radiographic assessment of tissue after exposure to a compound” (Veritas Pharmaceuticals, Inc., priority 1998, dated 2004).

Details: experimental logP values, commonly used non-ionic radiographic contrast agents (Hansch et al. 1995)

SMILES	logP
CC(=O)N(CC(O)CO)c1c(I)c(C(=O)NCC(O)CO)c(I)c(C(=O)NCC(O)CO)c1I (stereo not drawn) [Iohexol]	−3.05
COCC(=O)Nc1c(I)c(C(=O)NCC(O)CO)c(I)c(C(=O)N(C)CC(O)CO)c1I (stereo not drawn) [Iopromide]	−2.05
CC(=O)Nc1c(I)c(C(=O)N[C@H]2C(O)O[C@H](CO)[C@@H](O)[C@@H]2O)c(I)c(N(C)C(C)=O)c1I (stereo partly drawn) [Metrizamide]	−1.86
